For 24 compounds, logD and bioavailability results are on record in ChEMBL document CHEMBL1145388, “Pyridazinoquinolinetriones as NMDA glycine-site antagonists with oral antinociceptive activity in a model of neuropathic pain” (J Med Chem, 2007).

Broadly, the logD is lipophilicity at a set pH, counting ionised and neutral species. Low values mean lower lipophilicity, high ones higher lipophilicity. What is called bioavailability is the share of a dose that reaches the circulation, judged against a reference dose that is usually intravenous. A higher bioavailability goes with good availability.

Each structure is given as a SMILES string. Where only a bound is given, the exact number is not on record here.

One data set in a line: physchem. The following applies: octanol/water, pH 7.4.
The next data set is described as follows: in vivo. The conditions noted are these: Sprague-Dawley, rat, po, 10 mg/kg.

Regarding `O=C(O)c1ccc(Cn2[nH]c(=O)c3[nH]c4cc(Cl)ccc4c(=O)c3c2=O)cc1`, the pH-dependent lipophilicity (logD) in “physchem” was under 0.5.

Consider `COC(=O)c1ccc(C(C)n2[nH]c(=O)c3[nH]c4cc(Cl)ccc4c(=O)c3c2=O)cc1` (stereo not drawn), for which the pH-dependent lipophilicity (logD) in “physchem” was 1.3. `Cc1ccc(Cn2nc(O)c3[nH]c4cc(Cl)ccc4c(=O)c3c2=O)o1` displayed a log distribution coefficient (logD) in “physchem” of under 0.5. On the same count and under the same terms, the figure for `CC(C#Cc1ccccc1)n1[nH]c(=O)c2[nH]c3cc(Cl)ccc3c(=O)c2c1=O` (stereo not drawn) is 1.4. For the compound `O=c1[nH]n(Cc2ccno2)c(=O)c2c(=O)c3ccc(Cl)cc3[nH]c12`, the pH-dependent lipophilicity (logD) in “physchem” is under 0.5. The bioavailability at 24 h in the data set “in vivo” was determined as 40%. The compound `CCC(c1ccncc1)n1[nH]c(=O)c2[nH]c3cc(Cl)ccc3c(=O)c2c1=O` (racemic) registered a logD in the data set “physchem” of 0.6. In “physchem”, `COC(=O)c1ccc(Cn2nc(O)c3[nH]c4cc(Cl)ccc4c(=O)c3c2=O)cc1` gave a logD of 1.17. In “in vivo”, the bioavailability at 24 h turned out to be 7%.

In “in vivo”, `O=c1[nH]n(CC#Cc2ccccc2)c(=O)c2c(=O)c3ccc(Cl)cc3[nH]c12` showed a bioavailability at 24 h of 16%. In the case of `CN(C)C(=O)Nc1ccc(Cn2[nH]c(=O)c3[nH]c4cc(Cl)ccc4c(=O)c3c2=O)cc1`, the pH-dependent lipophilicity (logD) in the data set “physchem” amounted to 1.1. In the data set “in vivo”, this compound gave a bioavailability at 24 h of under 1%.

Take `CC(c1ccncc1)n1[nH]c(=O)c2[nH]c3cc(Cl)ccc3c(=O)c2c1=O.CS(=O)(=O)O` (racemic): the logD in “physchem” is under 0.3. In the data set “in vivo”, this compound gave a bioavailability at 24 h of 30%.

In the data set “physchem”, `Cc1ccsc1Cn1[nH]c(=O)c2[nH]c3cc(Cl)ccc3c(=O)c2c1=O` gave a logD of 1.4. Further, the bioavailability at 24 h in “in vivo” was determined as 28%.

`O=c1c2ccc(Cl)cc2[nH]c2c(O)nn(Cc3ccsc3)c(=O)c12`: the logD in “physchem” came out at 1.2. This compound also gave a bioavailability at 24 h in “in vivo” of 1.2%. In the data set “physchem”, `O=c1c2ccc(Cl)cc2[nH]c2c(O)nn(Cc3cc4ccccc4o3)c(=O)c12` returned a log distribution coefficient (logD) of 2.1. In the data set “in vivo”, this compound showed a bioavailability at 24 h of 25%. `CS(=O)(=O)O.O=c1c2ccc(Cl)cc2[nH]c2c(O)nn(Cc3ccncc3)c(=O)c12` registered a pH-dependent lipophilicity (logD) in “physchem” of under 0.3. Moreover, in “in vivo”, the bioavailability at 24 h came to 5%.

As to `CC(c1cc2ccccc2o1)n1[nH]c(=O)c2[nH]c3cc(Cl)ccc3c(=O)c2c1=O` (stereo not drawn), the log distribution coefficient (logD) in “physchem” was found to be 2. Still for that read-out and setting: the figure for `C#CC(C)n1[nH]c(=O)c2[nH]c3cc(Cl)ccc3c(=O)c2c1=O` (stereo not drawn) is under 0.5. As for `O=c1[nH]n(Cc2nccs2)c(=O)c2c(=O)c3ccc(Cl)cc3[nH]c12`, the log distribution coefficient (logD) in “physchem” was under 0.5. `CC(C#Cc1ccsc1)n1[nH]c(=O)c2[nH]c3cc(Cl)ccc3c(=O)c2c1=O` (stereo not drawn) returned a logD in the data set “physchem” of 1.9. The same measure, in the same setting: as for `COCCNC(=O)c1cccc(Cn2[nH]c(=O)c3[nH]c4cc(Cl)ccc4c(=O)c3c2=O)c1`, the figure is 1.2; as for `CC(C#Cc1cccs1)n1[nH]c(=O)c2[nH]c3cc(Cl)ccc3c(=O)c2c1=O` (stereo not drawn), 2.4; as for `Cc1cc(Cn2[nH]c(=O)c3[nH]c4cc(Cl)ccc4c(=O)c3c2=O)oc1C`, 1. Compound `CS(=O)(=O)O.O=c1c2ccc(Cl)cc2[nH]c2c(O)nn(Cc3cnccn3)c(=O)c12` came in with a pH-dependent lipophilicity (logD) in the data set “physchem” of under 0.5. This compound showed a bioavailability at 24 h in “in vivo” of 37%.

Consider `CC(c1ccsc1)n1[nH]c(=O)c2[nH]c3cc(Cl)ccc3c(=O)c2c1=O` (stereo not drawn), for which the pH-dependent lipophilicity (logD) in the data set “physchem” turned out to be 0.9. With `O=c1[nH]n(Cc2cc3ccccc3s2)c(=O)c2c(=O)c3ccc(Cl)cc3[nH]c12`, the bioavailability at 24 h in the data set “in vivo” was 12%.
